Source: paper PMC9866866, “Antiviral Activity of Benzoheterocyclic Compounds from Soil-Derived Streptomyces jiujiangensis NBERC-24992” (Molecules, 2023)
In brackets after ≈: the same amount, converted by molar mass.

Columns and labels:
PRV [1] = assay: microbe, parasite or virus in culture; format: cell-based, Pseudorabies virus; settings: for EC50: Suid alphaherpesvirus 1, Vero, 48 h, read-out: Antiviral Activity EC50
PRV [2] = format: cell-based, Pseudorabies virus
PRV [3] = format: cell-based, Pseudorabies virus; remark: listed apart in the source
Vero cells = settings: for Cytotoxicity IC50 (CC50): African green monkey
[4] = test system: various RNA and DNA viruses; settings: cited from earlier work
several viruses = settings: cited from earlier work
in vitro = settings: African green monkey

Structure (SMILES)	EC50 (PRV [1]) [mg/L]	Cytotoxicity IC50 (CC50) (Vero cells) [mg/L]	other results
COC[C@@](Cl)(CCC(C)=C(C)C)[C@@H]1Cc2cc(C(=O)O)ccc2N1 [Compound 7, A-503451 A]	6.46 ± 1.38 (≈ 18.4 µM)	–	–
COCC1(CCC(C)=C(C)C)Nc2ccc(C(=O)O)cc2CC1Cl (stereo not drawn) [Compound 4, virantmycin]	< 0.31	>20	virus infection in PRV-infected cells (indirect immunofluorescence) (PRV [2]): significantly reduced; PRV proliferation (qPCR, PRV gE) (PRV [3]): inhibits PRV proliferation in a dose–dependent manner; toxic effect on the tested cells (Vero cells): does not show any toxic effect; cells alive (protection of Vero cells against PRV) (PRV [1]): more than 50%; antiviral activity against various RNA and DNA viruses [4]: significant antiviral activity
COCC(O)(CCC1(C)OC1(C)C)C1Cc2cc(C(=O)O)ccc2N1 (stereo not drawn) [Compound 2, Virantmycin E]	> 20	>20	–
COC[C@@]1(CCC(C)=C(C)C)Nc2ccc(C(N)=O)cc2C[C@H]1Cl [Benzastatin C]	–	–	antiviral activity against several viruses (several viruses): specific activities against several viruses
NC(=O)c1ncn([C@@H]2O[C@H](CO)[C@@H](O)[C@H]2O)n1 [Ribavirin, reference compound]	4.44 ± 1.53 (≈ 18.2 µM)	>20	–
COC[C@@]1(CCC(C)=C(C)C)Nc2ccc(C(N)=O)cc2C[C@H]1O [benzastatin D]	–	–	antiviral activity against several viruses (several viruses): inactive
Nc1nc2c(ncn2COCCO)c(=O)[nH]1 [Acyclovir, reference compound]	2.96 ± 1.48 (≈ 13.1 µM)	>20	–
COCC12CCC(C)(O)C(C)(C)C1Cc1cc(C(=O)O)ccc1N2 (stereo not drawn) [Compound 1, Virantmycin D]	> 20	>20	–
COCC(O)(CCC(C)=C(C)C)C1Cc2cc(C(=O)O)ccc2N1 (stereo not drawn) [Compound 8, A-503451 B]	> 20	>20	–
COC[C@@]1(CCC(C)=C(C)C)Nc2ccc(C(=O)O)cc2C[C@H]1OC(C)=O [Compound 6, A-503451 D acetylate]	> 20	>20	–
COC[C@@]1(CCC(CO)=C(C)C)Nc2ccc(C(=O)O)cc2C[C@H]1Cl [Compound 3, Virantmycin F]	1.74 ± 0.25 (≈ 4.73 µM)	>20	viability (in vitro): 80%
COC[C@@]1(CCC(C)=C(C)C)Nc2ccc(C(=O)O)cc2C[C@H]1O [Compound 5, A-503451 D]	> 20	>20	–
